Assay results published in PubChem BioAssay AID1918944 (Molecular Pharmacology Branch, DTP, NCI, 2023).
Several values for one entry are separate records, joined by “and”; a condition that tells them apart may be missing. Identical values can stand only once. Values belong to the compound of their own block, whether it stands above or below them.

Tested on: 786-0 complex spheroid viability
Assay: Anticancer human tumor 786-0 cell line growth inhibition;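 further: spheroids exposed to agents for seven days before readout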
Conditions: for viability, T/C: stronger effect = lower value
Method in brief: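 Drug combinations with the LSD1 inhibitor iadademstat tested on tumor cells co-cultured as spheroids with endothelial cells and mesenchymal stem cells. Concentrations descended in half-log increments from clinical Cmax or 10 microM.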

[1] = curve of first compound, second compound 0.1 µM
[2] = curve of first compound, second compound 0.316 µM
[3] = curve of first compound, second compound 1 µM
[4] = curve of first compound, second compound 3.16 µM
[5] = curve of first compound, second compound 10 µM
[6] = second compound 0.1 µM, first compound 0.00949 µM
[7] = second compound 0.1 µM, first compound 0.03 µM
[8] = second compound 0.1 µM, first compound 0.0949 µM
[9] = second compound 0.1 µM, first compound 0.3 µM
[10] = second compound 0.1 µM, first compound 0.949 µM
[11] = second compound 0.1 µM, first compound 3 µM
[12] = second compound 0.316 µM, first compound 0.00949 µM
[13] = second compound 0.316 µM, first compound 0.03 µM
[14] = second compound 0.316 µM, first compound 0.0949 µM
[15] = second compound 0.316 µM, first compound 0.3 µM
[16] = second compound 0.316 µM, first compound 0.949 µM
[17] = second compound 0.316 µM, first compound 3 µM
[18] = second compound 1 µM, first compound 0.00949 µM
[19] = second compound 1 µM, first compound 0.03 µM
[20] = second compound 1 µM, first compound 0.0949 µM
[21] = second compound 1 µM, first compound 0.3 µM
[22] = second compound 1 µM, first compound 0.949 µM
[23] = second compound 1 µM, first compound 3 µM
[24] = second compound 3.16 µM, first compound 0.00949 µM
[25] = second compound 3.16 µM, first compound 0.03 µM
[26] = second compound 3.16 µM, first compound 0.0949 µM
[27] = second compound 3.16 µM, first compound 0.3 µM
[28] = second compound 3.16 µM, first compound 0.949 µM
[29] = second compound 3.16 µM, first compound 3 µM
[30] = second compound 10 µM, first compound 0.00949 µM
[31] = second compound 10 µM, first compound 0.03 µM
[32] = second compound 10 µM, first compound 0.0949 µM
[33] = second compound 10 µM, first compound 0.3 µM
[34] = second compound 10 µM, first compound 0.949 µM
[35] = second compound 10 µM, first compound 3 µM
[36] = second compound 0.1 µM, first compound 0.0316 µM
[37] = second compound 0.1 µM, first compound 0.1 µM
[38] = second compound 0.316 µM, first compound 0.0316 µM
[39] = second compound 0.316 µM, first compound 0.1 µM
[40] = second compound 1 µM, first compound 0.0316 µM
[41] = second compound 1 µM, first compound 0.1 µM
[42] = second compound 3.16 µM, first compound 0.0316 µM
[43] = second compound 3.16 µM, first compound 0.1 µM
[44] = second compound 10 µM, first compound 0.0316 µM
[45] = second compound 10 µM, first compound 0.1 µM

SMILES: CCN(c1cc(-c2ccc(CN3CCOCC3)cc2)cc(C(=O)NCc2c(C)cc(C)[nH]c2=O)c1C)C1CCOCC1 + NC1CC1c1ccc(-c2cccc(O)c2)cc1
IC50 [1]: > 3000 nM
IC50 [2]: > 3000 nM
IC50 [3]: > 3000 nM
IC50 [4]: > 3000 nM
IC50 [5]: > 3000 nM
viability, T/C [6]: 99.5%
viability, T/C [7]: 101%
viability, T/C [8]: 98.7%
viability, T/C [9]: 94.3%
viability, T/C [10]: 95.7%
viability, T/C [11]: 96.2%
viability, T/C [12]: 104%
viability, T/C [13]: 105%
viability, T/C [14]: 107%
viability, T/C [15]: 103%
viability, T/C [16]: 97.6%
viability, T/C [17]: 94.8%
viability, T/C [18]: 98.8%
viability, T/C [19]: 101%
viability, T/C [20]: 99.3%
viability, T/C [21]: 102%
viability, T/C [22]: 84.8%
viability, T/C [23]: 86%
viability, T/C [24]: 88.6%
viability, T/C [25]: 97.7%
viability, T/C [26]: 95.3%
viability, T/C [27]: 96.8%
viability, T/C [28]: 84.4%
viability, T/C [29]: 86.3%
viability, T/C [30]: 87.8%
viability, T/C [31]: 87%
viability, T/C [32]: 85.5%
viability, T/C [33]: 87.3%
viability, T/C [34]: 80.4%
viability, T/C [35]: 83%

SMILES: COc1cc(C2c3cc4c(cc3C(OC3OC5COC(C)OC5C(O)C3O)C3COC(=O)C23)OCO4)cc(OC)c1O (configuration not stated) + NC1CC1c1ccc(-c2cccc(O)c2)cc1
IC50 [1]: 212 nM
IC50 [2]: 247 nM
IC50 [3]: 174 nM
IC50 [4]: 183 nM
IC50 [5]: 162 nM
viability, T/C [6]: 96.6%
viability, T/C [7]: 88.2%
viability, T/C [8]: 63.9%
viability, T/C [9]: 42.5%
viability, T/C [10]: 26.9%
viability, T/C [11]: 12.1%
viability, T/C [12]: 105%
viability, T/C [13]: 95.8%
viability, T/C [14]: 66.2%
viability, T/C [15]: 47.1%
viability, T/C [16]: 25.8%
viability, T/C [17]: 9.93%
viability, T/C [18]: 93.1%
viability, T/C [19]: 89.4%
viability, T/C [20]: 57.9%
viability, T/C [21]: 40.2%
viability, T/C [22]: 22%
viability, T/C [23]: 10.9%
viability, T/C [24]: 90.7%
viability, T/C [25]: 82.9%
viability, T/C [26]: 59.2%
viability, T/C [27]: 43.3%
viability, T/C [28]: 20.8%
viability, T/C [29]: 10.3%
viability, T/C [30]: 80.6%
viability, T/C [31]: 76.6%
viability, T/C [32]: 54.3%
viability, T/C [33]: 42.5%
viability, T/C [34]: 22.6%
viability, T/C [35]: 8.94%

SMILES: Cn1ncnc1C1c2n[nH]c(=O)c3cc(F)cc(c23)NC1c1ccc(F)cc1 (configuration not stated) + NC1CCC(NC2CC2c2ccccc2)CC1
IC50 [1]: > 100 nM
IC50 [2]: > 100 nM
IC50 [3]: > 100 nM
IC50 [4]: > 100 nM
IC50 [5]: > 100 nM
viability, T/C (second compound 0.1 µM, first compound 0.000316 µM): 117%
viability, T/C (second compound 0.1 µM, first compound 0.001 µM): 114%
viability, T/C (second compound 0.1 µM, first compound 0.00316 µM): 117%
viability, T/C (second compound 0.1 µM, first compound 0.01 µM): 113%
viability, T/C [36]: 109%
viability, T/C [37]: 109%
viability, T/C (second compound 0.316 µM, first compound 0.000316 µM): 127%
viability, T/C (second compound 0.316 µM, first compound 0.001 µM): 118%
viability, T/C (second compound 0.316 µM, first compound 0.00316 µM): 121%
viability, T/C (second compound 0.316 µM, first compound 0.01 µM): 117%
viability, T/C [38]: 115%
viability, T/C [39]: 113%
viability, T/C (second compound 1 µM, first compound 0.000316 µM): 109%
viability, T/C (second compound 1 µM, first compound 0.001 µM): 115%
viability, T/C (second compound 1 µM, first compound 0.00316 µM): 114%
viability, T/C (second compound 1 µM, first compound 0.01 µM): 115%
viability, T/C [40]: 110%
viability, T/C [41]: 105%
viability, T/C (second compound 3.16 µM, first compound 0.000316 µM): 107%
viability, T/C (second compound 3.16 µM, first compound 0.001 µM): 106%
viability, T/C (second compound 3.16 µM, first compound 0.00316 µM): 112%
viability, T/C (second compound 3.16 µM, first compound 0.01 µM): 109%
viability, T/C [42]: 106%
viability, T/C [43]: 98.8%
viability, T/C (second compound 10 µM, first compound 0.000316 µM): 90.5%
viability, T/C (second compound 10 µM, first compound 0.001 µM): 88.1%
viability, T/C (second compound 10 µM, first compound 0.00316 µM): 91.5%
viability, T/C (second compound 10 µM, first compound 0.01 µM): 89.3%
viability, T/C [44]: 91.5%
viability, T/C [45]: 84.1%

IC50 (curve of compound): 4.54 nM and 5.35 nM
SMILES: CC[C@@]1(O)C(=O)OCc2c1cc1n(c2=O)Cc2cc3c(CN(C)C)c(O)ccc3nc2-1
viability, T/C (compound 0.000316 µM): 103% and 99.7%
viability, T/C (compound 0.001 µM): 96.7% and 96.5%
viability, T/C (compound 0.00316 µM): 65.8% and 70.9%
viability, T/C (compound 0.01 µM): 15.6% and 24.7%
viability, T/C (compound 0.0316 µM): 9.17% and 10.9%
viability, T/C (compound 0.1 µM): 4.15% and 4.08%

SMILES: NS(=O)(=O)OCC1CC(n2ccc3c(NC4CCc5ccccc54)ncnc32)CC1O (configuration not stated) + NC1CCC(NC2CC2c2ccccc2)CC1
IC50 [1]: 125 nM
IC50 [2]: 139 nM
IC50 [3]: 153 nM
IC50 [4]: 133 nM
IC50 [5]: 104 nM
viability, T/C [6]: 111%
viability, T/C [7]: 86.7%
viability, T/C [8]: 65.6%
viability, T/C [9]: 13.4%
viability, T/C [10]: 3.43%
viability, T/C [11]: 5.07%
viability, T/C [12]: 115%
viability, T/C [13]: 87.3%
viability, T/C [14]: 71.4%
viability, T/C [15]: 15.2%
viability, T/C [16]: 3.67%
viability, T/C [17]: 5.22%
viability, T/C [18]: 113%
viability, T/C [19]: 94.6%
viability, T/C [20]: 74.2%
viability, T/C [21]: 17.9%
viability, T/C [22]: 3.16%
viability, T/C [23]: 4.86%
viability, T/C [24]: 101%
viability, T/C [25]: 78.9%
viability, T/C [26]: 67.3%
viability, T/C [27]: 15.5%
viability, T/C [28]: 3.16%
viability, T/C [29]: 3.27%
viability, T/C [30]: 73.6%
viability, T/C [31]: 58.5%
viability, T/C [32]: 54.6%
viability, T/C [33]: 15.5%
viability, T/C [34]: 1.53%
viability, T/C [35]: 1.72%

SMILES: CC1COCCN1c1cc(C2(S(C)(=N)=O)CC2)nc(-c2ccnc3[nH]ccc23)n1 (configuration not stated) + NC1CC1c1ccc(-c2cccc(O)c2)cc1
IC50 [1]: 943 nM
IC50 [2]: 1020 nM
IC50 [3]: 933 nM
IC50 [4]: 819 nM
IC50 [5]: 751 nM
viability, T/C [36]: 99.5%
viability, T/C [37]: 107%
viability, T/C (second compound 0.1 µM, first compound 0.316 µM): 89.1%
viability, T/C (second compound 0.1 µM, first compound 1 µM): 47.4%
viability, T/C (second compound 0.1 µM, first compound 3.16 µM): 22.8%
viability, T/C (second compound 0.1 µM, first compound 10 µM): 14.4%
viability, T/C [38]: 114%
viability, T/C [39]: 110%
viability, T/C (second compound 0.316 µM, first compound 0.316 µM): 98.8%
viability, T/C (second compound 0.316 µM, first compound 1 µM): 49.7%
viability, T/C (second compound 0.316 µM, first compound 3.16 µM): 22.7%
viability, T/C (second compound 0.316 µM, first compound 10 µM): 14.8%
viability, T/C [40]: 101%
viability, T/C [41]: 102%
viability, T/C (second compound 1 µM, first compound 0.316 µM): 88%
viability, T/C (second compound 1 µM, first compound 1 µM): 46.4%
viability, T/C (second compound 1 µM, first compound 3.16 µM): 22.9%
viability, T/C (second compound 1 µM, first compound 10 µM): 12.8%
viability, T/C [42]: 94.5%
viability, T/C [43]: 101%
viability, T/C (second compound 3.16 µM, first compound 0.316 µM): 86%
viability, T/C (second compound 3.16 µM, first compound 1 µM): 41.8%
viability, T/C (second compound 3.16 µM, first compound 3.16 µM): 22.9%
viability, T/C (second compound 3.16 µM, first compound 10 µM): 14.6%
viability, T/C [44]: 99%
viability, T/C [45]: 95.2%
viability, T/C (second compound 10 µM, first compound 0.316 µM): 81.3%
viability, T/C (second compound 10 µM, first compound 1 µM): 38.1%
viability, T/C (second compound 10 µM, first compound 3.16 µM): 25.6%
viability, T/C (second compound 10 µM, first compound 10 µM): 13.4%
